Among the data in US8871767B2, “2-arylimidazo[1,2-B]pyridazine, 2-phenylimidazo[1,2-A]pyridine, and 2-phenylimidazo[1,2-A]pyrazine derivatives” (Hengrui (USA) Ltd., priority 2010, dated 2014) are IC50 values, retold here.

Read-outs that look alike come from different tables or passages of the source.

Test [1] concerns Hedgehog pathway activation on 10T1/2/Smo#3 cells (C3H10T1/2 cells transfected with human Smoothened receptor). Kind of test: Hedgehog pathway activation on 10T1/2/Smo#3 cells measured by ALP activity. The following applies: Mus musculus, C3H 10T1/2, 10T1/2/Smo#3 cells. Format: cell-based. The method, then: Hedgehog conditioned media was obtained by transfecting 293H cells with the full length gene encoding human Sonic Hedgehog (hShh) inserted into the pCMV6 expression vector, which contains a neomycin selectable marker and expresses the protein of interest with a C-terminal FLAG affinity tag. After selection in G418 containing media, conditioned media from Hedgehog expressing clones were tested for the ability to activate the hedgehog-responsive GLi-luciferase reporter in the Shh Light II cell line obtained by license from John Hopkins University (Taipale J, et al. Effects of oncogenic mutations in Smoothened and Patched can be reversed by cyclopamine. Nature 406: 1005-1009, 2000).
C3H10T1/2 cells were transfected with a pCMV expression vector containing the full length gene sequence encoding the human Smoothened receptor. Pooled cells, designated 10T1/2/Smo#3, growing in G418 selection media responded to activation by 10-20% conditioned hShh media with an approximate 5-10 fold increase in alkaline phosphaste (ALP) activity over untransfected parent C3H10T1/2 cells as measured by the conversion of the free acid of 4-methylumbelliferyl phosphate to a fluorescent product.
A test compound library was screened against hShh and 500 nM SAG (a direct agonist of the Smoothened receptor) activated 10T1/2/Smo#3 cells and Shh Light II reporter cells for the ability to block Hedgehog pathway activation. Concurrently, cell viability was measured by utilizing Celltiter-Blue® (Promega, Madison Wis.) viability assay. Active compounds were defined as those that inhibited Hedgehog signaling by greater than 50% with no concurrent loss in cell viability.
Their inhibitory activity against Hedgehog pathway activation on 10T1/2/Smo#3 cells as measured by ALP activity and Shh Light II reporter cells as measured by luciferase activity is shown in Table 1 below. In Table 1, +++ stands for an IC50 value that is less than 0.3 μM, ++ between 0.3 and 3 μM, + between 3 and 30 μM.
Additional data for compounds of the invention is shown below in Table 2. Their inhibitory activities against Hedgehog pathway activation are shown as IC50 values in μM on 10T1/2/Smo#3 cells as measured by ALP activity, or on Shh Light II reporter cells as measured by luciferase activity (hShh activation).

The subject of test [2] is Hedgehog pathway activation (GLi-luciferase reporter) in Shh Light II reporter cells. Put plainly: Hedgehog pathway activation on Shh Light II reporter cells measured by luciferase activity. The note with it: Mus musculus, Shh Light II. The format is cell-based. The procedure, abridged:
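Shh Light II reporter cells carrying a hedgehog-responsive GLi-luciferase reporter were stimulated either with 500 nM SAG, a direct Smoothened agonist, or with conditioned media containing human Sonic Hedgehog (hShh). Test compounds were evaluated for blocking this pathway activation, quantified by luciferase activity. Cell viability was monitored in parallel with the Celltiter-Blue® assay.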

Where [3] appears, read: measured by ALP activity, read-out: ALP (IC50, inhibition of Hedgehog pathway activation).
Setting [4] is: hShh activation, read-out: Shh (IC50, inhibition of Hedgehog pathway activation).
Setting [5] is: hShh activation, ALP activity, read-out: 10T1/2/Smo#3 ALP activity (hShh Activation).
Where [6] appears, read: SAG activation (500 nM SAG), read-out: Shh Light II luciferase activity (SAG activation).
[7] abbreviates: hShh activation, read-out: Shh Light II luciferase activity (hShh activation).

With `COc1ccc2nc(-c3ccc(Cl)c(NC(=O)C4CCCC4)c3)cn2n1` [Example 112, N-(2-chloro-5-(6-methoxyimidazo[1,2-b]pyridazin-2-yl)phenyl)cyclopentanecarboxamide], the IC50 in test [1] (setting [3]) was 9520 nM; in test [2] (setting [4]), more than 10000 nM.

In the case of `CC(C)(C)C(=O)Nc1cc(-c2cn3ncccc3n2)ccc1Cl` [Example 113, N-(2-chloro-5-(imidazo[1,2-b]pyridazin-2-yl)phenyl)pivalamide], the IC50 in test [1] (setting [5]) is 300 to 3000 nM; in test [1] (setting [3]), 1560 nM; in test [2] (setting [6]), 3000 to 30000 nM; in test [2] (setting [4]), 1000 nM; in test [2] (setting [7]), 300 to 3000 nM.

Take `COc1ccc2nc(-c3ccc(C)c(NC(=O)C(C)(C)C)c3)c(-c3ccc(F)cc3)n2n1` [Example 114, N-(5-(3-(4-fluorophenyl)-6-methoxyimidazo[1,2-b]pyridazin-2-yl)-2-methylphenyl)pivalamide]: the IC50 in test [1] (setting [5]) is 3000 to 30000 nM; in test [1] (setting [3]), more than 10000 nM; in test [2] (setting [6]), 3000 to 30000 nM; in test [2] (setting [4]), 7660 nM; in test [2] (setting [7]) it was 3000 to 30000 nM.

Take `COc1ccc2nc(-c3cc(NC(=O)C(C)(C)C)ccc3Cl)cn2n1` [Example 115, N-(4-chloro-3-(6-methoxyimidazo[1,2-b]pyridazin-2-yl)phenyl)pivalamide]: the values for the IC50 in test [1] (setting [3]) and in test [2] (setting [4]) were 2810 nM and 2870 nM, respectively.

In the case of `COc1ccc2nc(-c3cc(NC(=O)C4CC4)ccc3Cl)cn2n1` [Example 116, N-(4-chloro-3-(6-methoxyimidazo[1,2-b]pyridazin-2-yl)phenyl)cyclopropanecarboxamide], the IC50 is more than 10000 nM in test [1] (setting [3]) and 9650 nM in test [2] (setting [4]).

As to `COc1ccc2nc(-c3cc(NC(=O)CC(C)(C)C)ccc3Cl)cn2n1` [Example 117, N-(4-chloro-3-(6-methoxyimidazo[1,2-b]pyridazin-2-yl)phenyl)-3,3-dimethylbutanamide], the IC50 in test [1] (setting [5]) was 3000 to 30000 nM; in test [1] (setting [3]), 6740 nM; in test [2] (setting [6]) it was 3000 to 30000 nM; in test [2] (setting [4]), 2800 nM; in test [2] (setting [7]), 3000 to 30000 nM.

For `Cc1ccc(-c2cn3nc(Cl)ccc3n2)cc1NC(=O)C(C)(C)C` [Example 118, N-(5-(6-chloroimidazo[1,2-b]pyridazin-2-yl)-2-methylphenyl)pivalamide], the IC50 in test [1] (setting [3]) is 1200 nM; in test [2] (setting [4]), 613 nM.

Regarding `COc1ccc2nc(-c3ccc(Cl)c(NC(=O)C(C)(C)C(F)(F)F)c3)cn2n1` [Example 119, N-(2-chloro-5-(6-methoxyimidazo[1,2-b]pyridazin-2-yl)phenyl)-3,3,3-trifluoro-2,2-dimethylpropanamide], the IC50 in test [1] (setting [5]) was 3000 to 30000 nM; in test [1] (setting [3]), 4540 nM; in test [2] (setting [6]), 3000 to 30000 nM; in test [2] (setting [4]) it was 5650 nM; in test [2] (setting [7]), 3000 to 30000 nM.

Turning to `COc1ccc2nc(-c3ccc(Cl)c(NC(=O)CC(C)C(F)(F)F)c3)cn2n1` (stereo not drawn) [Example 120, N-(2-chloro-5-(6-methoxyimidazo[1,2-b]pyridazin-2-yl)phenyl)-4,4,4-trifluoro-3-methylbutanamide], the values for the IC50 in test [1] (setting [3]) and in test [2] (setting [4]) were 6280 nM and more than 10000 nM, respectively.

`COc1ccc2nc(-c3ccc(C)c(NC(=O)C(C)(C)C)c3)c(C)n2n1` [Example 121, N-(5-(6-methoxy-3-methylimidazo[1,2-b]pyridazin-2-yl)-2-methylphenyl)pivalamide]: the IC50 in test [1] (setting [5]) is 300 to 3000 nM; in test [1] (setting [3]) it was 1870 nM; in test [2] (setting [6]), 3000 to 30000 nM; in test [2] (setting [4]), 2000 nM; in test [2] (setting [7]), 300 to 3000 nM.

As to `Cc1ccc(-c2cn3nc(Cl)ccc3n2)cc1NC(=O)C(C)(C)C(F)(F)F` [Example 122, N-(5-(6-chloroimidazo[1,2-b]pyridazin-2-yl)-2-methylphenyl)-3,3,3-trifluoro-2,2-dimethylpropanamide], the IC50 in test [1] (setting [3]) turned out to be 1940 nM; in test [2] (setting [4]) it was 3040 nM.

Consider `Cc1ccc(-c2cn3nc(N4CCN(Cc5ccc(F)cc5)CC4)ccc3n2)cc1NC(=O)C(C)(C)C` [Example 123, N-(5-(6-(4-(4-fluorobenzyl)piperazin-1-yl)imidazo[1,2-b]pyridazin-2-yl)-2-methylphenyl)pivalamide], for which the IC50 in test [1] (setting [5]) was 300 to 3000 nM; in test [1] (setting [3]), 488 nM; in test [2] (setting [6]), 300 to 3000 nM; in test [2] (setting [4]), 712 nM; in test [2] (setting [7]), 300 to 3000 nM.

`CCCCSc1ccc2nc(-c3ccc(C)c(NC(=O)C(C)(C)C)c3)cn2n1` [Example 124, N-(5-(6-(butylthio)imidazo[1,2-b]pyridazin-2-yl)-2-methylphenyl)pivalamide]: the IC50 in test [1] (setting [5]) was 300 to 3000 nM; in test [1] (setting [3]), 604 nM; in test [2] (setting [6]), 300 to 3000 nM; in test [2] (setting [4]) it was 895 nM; in test [2] (setting [7]) it was 300 to 3000 nM.

Turning to `COc1ccc2nc(-c3ccc(C(F)(F)F)c(NC(=O)C(C)(C)C)c3)cn2n1` [Example 125, N-(5-(6-methoxyimidazo[1,2-b]pyridazin-2-yl)-2-(trifluoromethyl)phenyl)pivalamide], the IC50 in test [1] (setting [3]) stood at 1250 nM; in test [2] (setting [4]), 435 nM.

Turning to `CC(C)(C)C(=O)Nc1cc(-c2cn3nc(Cl)ccc3n2)ccc1C(F)(F)F` [Example 126, N-(5-(6-chloroimidazo[1,2-b]pyridazin-2-yl)-2-(trifluoromethyl)phenyl)pivalamide], the IC50 was determined as 5570 nM in test [1] (setting [3]) and 7720 nM in test [2] (setting [4]).

As for `Cc1ccc(-c2cn3nc(C4CC4)ccc3n2)cc1NC(=O)C(C)(C)C` [Example 127, N-(5-(6-cyclopropylimidazo[1,2-b]pyridazin-2-yl)-2-methylphenyl)pivalamide], the IC50 in test [1] (setting [5]) was less than 300 nM; in test [1] (setting [3]) it was 110 nM; in test [2] (setting [6]), 300 to 3000 nM; in test [2] (setting [4]), 4970 nM; in test [2] (setting [7]) it was 300 to 3000 nM.

For the compound `Cc1ccc(-c2cn3nc(N4CCOCC4)ccc3n2)cc1NC(=O)C(C)(C)C` [Example 128, N-(2-methyl-5-(6-morpholinoimidazo[1,2-b]pyridazin-2-yl)phenyl)pivalamide], the IC50 in test [1] (setting [5]) was 300 to 3000 nM; in test [1] (setting [3]), 422 nM; in test [2] (setting [6]), 3000 to 30000 nM; in test [2] (setting [4]), more than 10000 nM; in test [2] (setting [7]) it was 3000 to 30000 nM.

Turning to `Cc1ccc(-c2cn3nc(SCc4ccccc4)ccc3n2)cc1NC(=O)C(C)(C)C` [Example 129, N-(5-(6-(benzylthio)imidazo[1,2-b]pyridazin-2-yl)-2-methylphenyl)pivalamide], the results for the IC50 in test [1] (setting [3]) and in test [2] (setting [4]) were 789 nM and 1770 nM, respectively.

`CCCCS(=O)(=O)c1ccc2nc(-c3ccc(C)c(NC(=O)C(C)(C)C)c3)cn2n1` [Example 130, N-(5-(6-(butylsulfonyl)imidazo[1,2-b]pyridazin-2-yl)-2-methylphenyl)pivalamide]: the IC50 was 300 to 3000 nM in test [1] (setting [5]); 526 nM in test [1] (setting [3]); less than 300 nM in test [2] (setting [6]); 898 nM in test [2] (setting [4]); 300 to 3000 nM in test [2] (setting [7]).

For `Cc1cc(Cl)c(-c2cn3nc(Cl)ccc3n2)cc1NC(=O)C(C)(C)C` [Example 131, N-(4-chloro-5-(6-chloroimidazo[1,2-b]pyridazin-2-yl)-2-methylphenyl)pivalamide], the IC50 came to 8280 nM in test [1] (setting [3]) and 1450 nM in test [2] (setting [4]).

On to `COc1ccc2nc(-c3cc(NC(=O)C(C)(C)C)c(C)cc3Cl)cn2n1` [Example 132, N-(4-chloro-5-(6-methoxyimidazo[1,2-b]pyridazin-2-yl)-2-methylphenyl)pivalamide], for which the figures for the IC50 in test [1] (setting [3]) and in test [2] (setting [4]) were more than 10000 nM and 1490 nM, respectively.
